In patent publication US20250251402A1, “METHODS OF DETECTING MOLECULAR AGGREGATES USING IMAGE CORRELATION SPECTROSCOPY (ICS)” (The General Hospital Corporation, priority 2022, published 2025):

How the values were obtained:
Assay type in all cases: cell-based
WPMY-1 cells = test: Autocorrelation (ICS DA) of 53BP1 in phenotypic screen images, WPMY-1
Procedure: (§1) Images from the original study (8) were accessed through the Image Data Resource (32) API on the Open Microscopy environment. Nuclei were segmented using StarDist (33) on the BFP channel image. Segmented nuclei were then analyzed by image correlation spectroscopy autocorrelation (34) in the TP53BP1 channel and the average degree of aggregation (DA) was calculated.
(§2) We accessed the original phenotypic screen (8) images through the IDR API on the Open Microscopy server. The screen contained three different cell lines that had endogenous TP53BP1 labeled GFP as a marker protein. We first identified all the images from these three cell lines (>60,000 images in total), then segmented the nuclei of each cell using the BFP channel image. Segmented nuclear regions were then transferred to the TP53BP1 image and image autocorrelation was performed on each nucleus. The degree of aggregation (DA, a measurement of fluorophore clustering) for each nucleus was then averaged to produce an overall image 53BP1 DA that corresponded to the compound and compound concentration. The dataset contained repeats of four different doses for each compound. The activity of each compound in each cell line was then determined by fitting a linear regression to the DA as a function of compound concentration. The slope and significance versus the null hypothesis (slope equal to zero) of DA vs. concentration was then determined.
(§3) 53BP1 DA is a measure of protein labeled fluorophore clustering within the nucleus. […] Increases in 53BP1 recruitment can occur either through induction of DNA damage or altered repair pathways, such as shifting the response from homologous recombination to non-homologous end joining.

A549 cells = test: Autocorrelation (ICS DA) of 53BP1 in phenotypic screen images, A549
Procedure: as §1, §2, §3

HepG2 cells = test: Autocorrelation (ICS DA) of 53BP1 in phenotypic screen images, HepG2
Procedure: as §1, §2, §3

53BP1 = test: Autocorrelation (ICS DA) of 53BP1 in phenotypic screen images, cell line not specified; details: at least one cell line of A549, WPMY-1, HepG2
Procedure: as §1, with “calculated. […] Active compounds were defined as having significant (p<0.05) non-zero linear regressions, either negative or positive. The activity score was determine by summing the direction of each active compound and dividing by the total number of compounds in the MoA.” for “calculated.”
as §2, with “determined. Active compounds were defined as those having a significant (p<0.05) slope of DA vs. concentration.” for “determined.”
53BP1 DA is a measure of protein labeled fluorophore clustering within the nucleus. […] Yet, given the highly characterized role of 53BP1 in the DNA damage response (9), recruitment to DNA damage response foci is likely the most prominent driver of measured activity.

HT1080 cells = test: γH2AX immunofluorescence ICS DA and nuclear intensity in HT1080 cells; details: HT1080, 10 nM GMX1778 for 24 hours vs control
Procedure: Cells were plated in 8-well […] slides (Thermo or Ibidi) to achieve 50% confluence overnight. Cells were then treated and fixed with 4% paraformaldehyde in PBS at room temperature for 10 minutes. Antibody staining was performed according to the manufacturers protocol. Following fluorescent secondary antibody labeling, prolong gold with DAPI (Cell Signaling Technologies) was added and samples were stored for up to 1 week prior to imaging.
ICS analysis was performed in MATLAB as previously described (41). Briefly, nuclei were segmented from the DAPI channel with the MATLAB function, imbinarize, converting the greyscale image to a binary dependent on an automatically defined threshold. The MATLAB function, regionprops, was used to identify single nuclei as objects. Each nucleus was used as a mask to perform ICS analysis on the antibody-stained channel, within size limitations for a nucleus (objects >400 and <3000 pixels). To ensure the analysis of antibody stained nuclei, nuclei under an average intensity of 200 au after background subtraction were excluded. The spatial autocorrelation functions were calculated using Fourier methods, then fit to a 2D Gaussian using a nonlinear least-squares algorithm (41). Using the outputs of the fitting, the mean number of independent emitting fluorescent entities per focal spot area and subsequently the DA were determined (59). DA measurements across experiments were normalized by the control in each dataset. […] Any DA values exceeding 3 standard deviations from the mean were defined as incorrectly segmented and removed. Data were plotted in Prism and analysis performed in Prism or Excel.

HCC1937 cells = test: 53BP1-mApple condensate anisotropy (homo-FRET) and intensity in HCC1937 cells
Procedure: All fluorescence imaging was performed on an Olympus FV1000 multiphoton/confocal microscope. Anisotropy measurements were performed through custom modifications to the imaging system as previously described (30). Briefly, linear polarization of two photon excitation light at 910 nm (MaiTai femtosecond laser, Spectra Physics) was controlled by a glan-thompson prism and half wave plate. […] was collected in orthogonal orientations through two detectors, parallel and perpendicular to excitation polarization, through a polarizing beam splitter that replaced a dichroic mirror in the emission filter cube. The alignment and detector gain and noise were validated each imaging session through measurements of a standard slide. Images were taken with an Olympus 25× XLPlan N objective, NA 1.05, and 3× digital zoom. Confocal imaging was performed with an Olympus XLUMPlanFL N 20× objective, NA 1.00 with chromatic correction, and 3× digital zoom.
Cells were grown on 12 mm round, uncoated, sterilized glass coverslips in 24-well plates for 24 hours. Cells were treated with PARPi and 100 μM TMZ for 1 hour or 10 nM GMX1778 overnight followed by 100 μM TMZ for 1 hour. TMZ was added to stimulate new DNA damage induced condensates in the presence of PARPi or NAD″ depletion. Cells were then transferred to the microscope for anisotropy imaging. Images were analyzed in MATLAB. Nuclei were segmented through intensity thresholding and condensates were segmented through further intensity thresholding with a higher threshold. Values of segmented nuclei and condensates were determined through the regionprops function. Segmentation was corrected through area restrictions to ensure that regions of interest were isolated condensates. The thresholding parameters were consistent throughout experiments. The average intensity and anisotropy of each segmented nuclei or condensate was then calculated. Data were plotted in Prism and analysis performed in Prism or Excel.

SKOV3 cells = test: γH2AX immunofluorescence in SKOV3 cells (intensity, Imaris Spots, ICS TNoP and DA)
Excerpt: (§4) For the ICS analysis, nuclei were segmented from the DAPI channel using a watershed approach in MATLAB. Briefly, we applied a difference of gaussians for size-based feature extraction of nuclei in the image (upper gaussian σ=100, lower gaussian σ=2-5 dependent on cell size). This feature enhanced image was then binarized to create a primary mask (using the function imbinarize) and connected components under 100 pixels were removed (using the function bwareaopen). We then created a distance transform of the resulting binary image (using the function bwdist). Seed points were determined by finding the regional maximum of a gaussian filtered image, with a gaussian σ of appropriate size for seed point detection (σ×7 or 8 dependent on cell size). The seed points were applied to the distance transform, and we applied the watershed function to the resulting image to obtain masks for each nucleus (extracted using the function regionprops).
(§5) Using the nucleus masks, we performed ICS analysis on the antibody-stained channel, within size limitations for a nucleus (objects >400 and <2400 pixels). Intensity, DA and TNOP were calculated for each cell. In this analysis, since the ROI is defined by the nucleus mask (segmented from nuclear signal using DAPI staining), TNoP represents the total number of particles per nucleus, with the image area being the number of pixels in each nuclear mask.
(§6) Measurements across experiments were normalized by the control in each dataset. […] Data were plotted in Prism and statistical analysis was performed in Excel.
(§7) Imaris spots analysis were performed with Imaris 9.8 with background subtraction, using a spot size of 1 μm that was measured from the smallest distinguishable foci from the control image. For images with multiple nuclei, ImarisCell was used with the detection type “cell and vesicles”, where the nucleus in the DAPI channel was modelled as the “cell” and antibody-labeled foci were modelled as the “vesicles”. This enabled us to count the number of foci per nucleus for multiple cells. In each dataset, the automatic “quality” threshold was determined from the control image and the same threshold was used for every image in the dataset to be able to compare the outputs across datasets. Similar to the ICS analysis, only cells with an area between 400-2400 voxels were included for analysis.
(§8) All chemicals were purchased from Sigma unless otherwise noted. All drugs were purchased from Selleck Chemicals. Cells were cultured in media supplemented with 10% fetal bovine serum and 1% penicillin/streptomycin. OVCA429 were originally obtained from Dr. Michael Birrer and cultured in DMEM. SKOV3 was obtained from ATCC and cultured in RPMI. For MMS treatment, cells were incubated for 6 hours before fixation with 4% formaldehyde, whereas for treatment with PARP inhibitors, cells were incubated for 24 hours before fixation.
(§9) Cells were plated in 8-well slides (Fisher) to achieve 50% confluence overnight. Cells were then treated and fixed with 4% formaldehyde in PBS at room temperature for 10 minutes. Antibody staining was performed according to the manufacturers protocol (Cell Signaling Technologies or Abcam). Primary antibodies used were γH2AX (CST, #2577), RPA1 (CST, #2267) and RAD51 (Abcam, 63801), with Anti-rabbit IgG Fab2 Alexa Fluor 647 (CST, #4414) as the secondary fluorescent antibody. After antibody labeling, prolong gold with DAPI (CST) was added and samples were stored for up to 1 week prior to imaging. Confocal imaging was performed on an Olympus FV1000 multiphoton/confocal microscope using an Olympus XLUMPlanFL N 20× objective, NA 1.00 with chromatic correction, and 3× digital zoom. DAPI was excited with a 405 nm laser, while Alexa Fluor 647 was excited with a 635 nm laser. A multiband (DM 405/488/561/633 nm) dichroic mirror was used to direct the excitation laser and collect emission. […]

OVCA429 cells = test: γH2AX immunofluorescence in OVCA429 cells (intensity, Imaris Spots, ICS TNoP and DA)
Excerpt: as §4, §5, §6, §7, §8, §9

[1] = HCC1937, 10 nM GMX1778 overnight then 100 μM TMZ 1 hour

NC(=O)c1cccc(N)c1 [3-aminobenzamide]
53BP1 DA vs. concentration regression (53BP1 recruitment) (WPMY-1 cells): reduced 53BP1 recruitment | 53BP1 DA vs. concentration regression (53BP1 recruitment) (A549 cells): reduced 53BP1 recruitment | 53BP1 DA vs. concentration regression (53BP1 recruitment) (HepG2 cells): reduced 53BP1 recruitment

NC(=O)c1cccc(-c2cc(Nc3ccc(OC(F)(F)F)cc3)ncn2)c1 [GNF 2]
53BP1 DA vs. concentration regression (53BP1 recruitment) (A549 cells): reduced 53BP1 recruitment | 53BP1 DA vs. concentration regression (53BP1 recruitment) (HepG2 cells): reduced 53BP1 recruitment

Cc1nc(NC(=O)N2CCC[C@H]2C(N)=O)sc1-c1csc(C(C)(C)C)n1 [A66]
53BP1 DA vs. concentration regression (53BP1 recruitment) (WPMY-1 cells): strong inducers of 53BP1 recruitment

O=c1[nH]cnc2ccccc12 [4-HQN]
53BP1 DA vs. concentration regression (53BP1 recruitment) (53BP1): increased 53BP1 recruitment

N#CN=C(NCCCCCCOc1ccc(Cl)cc1)Nc1ccncc1 [GMX1778]
γH2AX ICS DA (HT1080 cells): significantly increased | γH2AX levels (nuclear intensity) (HT1080 cells): no significant difference | 53BP1-mApple condensate anisotropy vs control (HCC1937 cells; [1]): significantly lowered condensate anisotropy | 53BP1-mApple condensate intensity vs control (HCC1937 cells; [1]): without impacting condensate intensity

COc1ccc(C(=O)C2CCN(CC(=O)N(Cc3nc4c(c(=O)[nH]3)COCC4)CC3CC3)CC2)cc1 [NVP-TNKS656]
53BP1 DA vs. concentration regression (53BP1 recruitment) (53BP1): increased 53BP1 recruitment

CCCOc1ccc(CCc2nc3cc(-c4c(C)noc4C)ccc3n2CCN2CCOCC2)cc1 [PF CBP1]
53BP1 DA vs. concentration regression (53BP1 recruitment) (WPMY-1 cells): strong activity

COc1ccccc1S(=O)(=O)Nc1ccc2c(c1)CN(C)C(=O)N2 [PFI-1]
53BP1 DA vs. concentration regression (53BP1 recruitment) (A549 cells): strong positive activity | 53BP1 DA vs. concentration regression (53BP1 recruitment) (HepG2 cells): strong positive activity

Cc1c(-c2cnccn2)ssc1=S [oltipraz]
53BP1 DA vs. concentration regression (53BP1 recruitment) (WPMY-1 cells): two of the strongest 53BP1 recruitment-reducing compounds

O=C(c1cc(Cc2n[nH]c(=O)c3ccccc23)ccc1F)N1CCN(C(=O)C2CC2)CC1 [olaparib]
ICS TNoP of γH2AX, dose dependence (SKOV3 cells; SKOV3): slight TNOP dose dependence | Number of γH2AX spots determined by Imaris (SKOV3 cells; SKOV3, 100 μM olaparib vs 10 μM dose): not significant compared to the 10 μM dose | 53BP1-mApple condensate anisotropy vs control (HCC1937 cells; HCC1937, 1 μM PARPi and 100 μM TMZ for 1 hour): significantly lower condensate anisotropy compared to control | ICS DA of γH2AX, dose dependence (OVCA429 cells; OVCA429): full dose dependent increases in γH2AX clustering | Imaris Spots analysis of γH2AX, dose dependence (OVCA429 cells; OVCA429): able to capture olaparib dose dependence | γH2AX intensity, dose dependence (OVCA429 cells; OVCA429, PARP inhibitors): did not show a dose dependence

Cc1cc(C)c(C)c(S(=O)(=O)Nc2ccc(N3CC[C@H](C(=O)O)C3)c3ccccc23)c1C [RA839]
53BP1 DA vs. concentration regression (53BP1 recruitment) (WPMY-1 cells): two of the strongest 53BP1 recruitment-reducing compounds

Cc1nc2c(O)cccc2c(=O)[nH]1 [NU 1025]
53BP1 DA vs. concentration regression (53BP1 recruitment) (53BP1): increased 53BP1 recruitment

O=C(CCCCCCC(=O)Nc1ccccc1)NO [SAHA]
53BP1 DA vs. concentration regression (53BP1 recruitment) (WPMY-1 cells): strong inducers of 53BP1 recruitment

S=P(N1CC1)(N1CC1)N1CC1 [thiotepa]
53BP1 DA vs. concentration regression (53BP1 recruitment) (WPMY-1 cells): strong inducers of 53BP1 recruitment
